Data set [1] has as its system KB-3-1 cells. Nature of the data set: MTT reversal assay, parental KB-3-1. Format: cell-based, human. Particulars: no modulator, mean ± SD of at least three independent experiments in triplicate, read-out: IC50 of anticancer drug alone. As for the experimental part:
(§1) Therefore, we used KB-C2 and its parental cell line KB-3-1 in this study. […] All the cell lines were cultured in DMEM containing 1% penicillin/streptomycin and 10% FBS at 37°C with 5% CO2. All drug-resistant cell lines were cultured in drug-free medium for more than 2 weeks prior to their use.
(§2) Briefly, 5×10^3 cells per well were evenly seeded in 96-well microplates overnight. For the cytotoxicity assay, peptides and positive control of known substrate anticancer drugs were added in a designated concentration gradient. For the reversal assay, peptides and positive control agents were added 2 h before the addition of anticancer drugs within the specified concentration gradient. The plates were incubated in a culture condition for 68 h followed by the addition of 20 μL MTT solution (4 mg/mL) and further incubation of 4 h. After aspirating the culture medium and MTT solution, the formazan crystals were dissolved with 100 μL DMSO. The absorbance was determined at 570 nm with the accuSkan GO UV/Vis Microplate Spectrophotometer (Fisher Sci., Fair Lawn, NJ).

A further data set concerns HEK293/pcDNA3.1 cells. Kind of data set: MTT reversal assay, HEK293/pcDNA3.1. Format: cell-based. Particulars: no modulator, mean ± SD of at least three independent experiments in triplicate, read-out: IC50 of anticancer drug alone. As for the experimental part:
as §1, §2

The subject of the next data set is HEK293/ABCB1 cells. Kind of data set: MTT reversal assay, transfected HEK293/ABCB1. In kind it is cell-based. Particulars: HEK293/ABCB1, read-out: IC50 of anticancer drug alone. (In general: Tetrazolium assays rely on reduction of a dye to a coloured formazan, in cell work by metabolically active cells.)
For data set [2], the system named is KB-C2 cells (ABCB1-overexpressing). Nature of the data set: MTT reversal assay, drug-selected ABCB1-overexpressing KB-C2. Format: cell-based, human. Here is the method:
as §1, §2

For data set [3], the system named is ABCB1 in KB-C2 cells. Nature of the data set: [3H]-paclitaxel accumulation, KB-C2. In kind it is cell-based, human. Conditions: KB-C2 vs KB-3-1; after 2 hours of incubation; no inhibitor. As for the experimental part: (§3) Drug accumulation and efflux assays were performed as previously described ([Fan et al., 2018]). For the drug accumulation assay, KB-C2 and KB-3-1 cells were seeded at 1×10^4 cells per well into 24-well plates and incubated at 37°C overnight. After cells were incubated in the presence or absence of peptide HX-12C and positive reversal agent for 72 h, the medium was replaced by medium containing 5 μM [^3H]-paclitaxel with peptide HX-12C or positive reversal agent. The drug medium was discarded after 2 h incubation, then cells were washed three times with ice-cold PBS and transferred to the scintillation fluid. The drug efflux assay was performed after discarding the drug medium, then cells were washed three times with ice-cold PBS and treated with the medium containing peptide HX-12C or positive reversal agent. There were three different time points (30, 60, and 120 min) at which after changing the medium, the cells were washed three times with ice-cold PBS and collected and transferred to the scintillation fluid. The Packard TRI-CARB1 190`A liquid scintillation analyzer was used to measure radioactivity. A parallel well of cells for each group was set up for cell number counting at the end of assay for the purpose of data normalization.

The subject of data set [4] is ABCB1 in KB-C2 cells. Kind of data set: [3H]-paclitaxel efflux, KB-C2. Format: cell-based, human. Conditions: without inhibitor treatment, 2 h. As for the experimental part:
as §3

Data set [5] deals with KB-3-1 cells. Kind of data set: MTT cytotoxicity of peptides, parental KB-3-1. Format: cell-based, human. Conditions: KB-3-1 parental; modified MTT, 68 h + 4 h MTT, 570 nm; three independent experiments. Here is the method:
as §1, §2

For the next data set, the target named is T1, ABCB1 (Homo sapiens, UniProt P08183).
T1 construct: purchased BD Biosciences, San Jose, CA, USA; host or cells: High Five insect cells (membrane vesicles)
Nature of the data set: ABCB1 ATPase assay (vanadate-sensitive). In kind it is biochemical. Conditions: insect cell membrane vesicles. As for the experimental part: The ABCB1 ATPase activity was measured based on vanadate-sensitive principle as previously described ([Zhang et al., 2016]). The High Five insect cells membrane vesicles (BD Biosciences, San Jose, CA, USA) were first incubated for 5 min in ATPase assay buffer at 37°C with or without 0.3 mM vanadate. Then peptide HX-12C at a concentration of 0 to 40 μM was adding to the assay buffer and incubated at 37°C for 3 min. After adding 5 mM Mg-ATP with a total volume of 0.1 mL, the ATPase reaction was initiated until stopped by adding 100 μL 5% SDS solution after incubation at 37°C for 20 min. The amount of inorganic phosphate (IP) was used to calculate the ATPase activity of ABCB1, detected at 800 nm using a spectrophotometer.

This is an account of results in paper PMC7438908, “Antimicrobial Peptide Reverses ABCB1-Mediated Chemotherapeutic Drug Resistance” (Frontiers in Pharmacology, 2020).

“Also recorded” adds a separate entry of the source. Like-named read-outs stand apart in the source and are kept apart here. Where no end group is shown, it is not given here.

A word on the IC50: it is the concentration that inhibits the measured activity by half.

T1 sequence (P08183 whole entry): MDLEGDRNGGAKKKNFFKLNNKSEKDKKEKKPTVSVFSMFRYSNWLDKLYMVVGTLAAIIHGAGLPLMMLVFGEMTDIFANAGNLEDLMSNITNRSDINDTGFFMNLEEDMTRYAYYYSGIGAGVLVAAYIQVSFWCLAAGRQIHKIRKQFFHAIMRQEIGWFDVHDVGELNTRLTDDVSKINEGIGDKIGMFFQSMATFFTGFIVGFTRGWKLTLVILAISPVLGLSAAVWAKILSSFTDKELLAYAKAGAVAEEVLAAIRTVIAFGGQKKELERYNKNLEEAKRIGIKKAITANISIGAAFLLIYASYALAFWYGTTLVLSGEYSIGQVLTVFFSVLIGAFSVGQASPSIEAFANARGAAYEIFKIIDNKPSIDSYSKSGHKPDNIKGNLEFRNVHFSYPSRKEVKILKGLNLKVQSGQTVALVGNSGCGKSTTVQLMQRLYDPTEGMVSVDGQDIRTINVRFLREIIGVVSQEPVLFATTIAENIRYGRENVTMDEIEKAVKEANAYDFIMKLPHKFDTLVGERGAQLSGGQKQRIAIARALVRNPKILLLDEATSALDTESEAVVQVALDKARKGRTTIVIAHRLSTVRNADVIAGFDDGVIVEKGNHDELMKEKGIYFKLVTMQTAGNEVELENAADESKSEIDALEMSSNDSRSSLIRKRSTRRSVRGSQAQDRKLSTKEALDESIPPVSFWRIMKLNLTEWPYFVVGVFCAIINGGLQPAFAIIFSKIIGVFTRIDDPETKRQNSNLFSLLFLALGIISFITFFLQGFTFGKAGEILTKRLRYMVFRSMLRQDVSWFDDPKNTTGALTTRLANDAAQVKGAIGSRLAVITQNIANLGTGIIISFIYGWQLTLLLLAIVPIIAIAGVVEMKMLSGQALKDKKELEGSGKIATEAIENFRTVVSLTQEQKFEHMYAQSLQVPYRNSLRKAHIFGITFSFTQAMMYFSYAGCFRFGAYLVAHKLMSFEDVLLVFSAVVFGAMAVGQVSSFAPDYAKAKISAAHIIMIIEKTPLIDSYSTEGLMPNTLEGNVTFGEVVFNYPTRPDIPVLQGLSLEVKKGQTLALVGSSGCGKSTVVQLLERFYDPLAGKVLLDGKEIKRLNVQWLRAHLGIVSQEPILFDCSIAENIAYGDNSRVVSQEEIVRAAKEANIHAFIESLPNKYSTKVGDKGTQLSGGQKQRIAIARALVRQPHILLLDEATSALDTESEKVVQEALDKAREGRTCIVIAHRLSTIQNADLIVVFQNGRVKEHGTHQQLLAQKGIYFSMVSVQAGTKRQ

On to `N.N.[Cl][Pt][Cl]` [Cisplatin, cisplatin], for which the figures for the IC50 in the data set on KB-3-1 cells [1] and with HEK293/pcDNA3.1 cells were 1.79 ± 0.476 µM and 2.21 ± 0.541 µM, respectively.
Take `COc1cccc2c1C(=O)c1c(O)c3c(c(O)c1C2=O)C[C@@](O)(C(=O)CO)C[C@@H]3O[C@H]1C[C@H](N)[C@H](O)[C@H](C)O1` [Doxorubicin, doxorubicin]: the IC50 in the data set with KB-3-1 cells [1] (Homo sapiens) came out at 1.19 ± 0.279 µM; in the data set with HEK293/ABCB1 cells, 31.2 ± 5.41 µM; in data set [2] (Homo sapiens, KB-C2, read-out: IC50 of anticancer drug alone) it was 69.8 ± 4.64 µM. Moreover, the “IC50 in ABCB1-overexpressing cells compared with parental cells” value in data set [2] is “significantly higher than those of their parental cells”.
For `CC(=O)O[C@H]1C(=O)[C@@]2(C)[C@H]([C@H](OC(=O)c3ccccc3)[C@]3(O)C[C@H](OC(=O)[C@H](O)[C@@H](NC(=O)c4ccccc4)c4ccccc4)C(C)=C1C3(C)C)[C@]1(OC(C)=O)CO[C@@H]1C[C@@H]2O` [Paclitaxel, paclitaxel], the results for the half-maximal inhibitory concentration (IC50) with KB-3-1 cells [1] (Homo sapiens), in the data set on HEK293/ABCB1 cells and in the data set on HEK293/pcDNA3.1 cells (Homo sapiens) were 0.002 ± 0.0007 µM, 30.9 ± 4.67 µM and 1.45 ± 0.121 µM, respectively.
For the compound `CC(=O)O[C@H]1C(=O)[C@@]2(C)[C@H]([C@H](OC(=O)c3ccccc3)[C@]3(O)C[C@H](OC(=O)[C@H](O)[C@@H](NC(=O)c4ccccc4)c4ccccc4)C(C)=C1C3(C)C)[C@]1(OC(C)=O)CO[C@@H]1C[C@@H]2O` [[^3H]-paclitaxel], the “level of [3H]-paclitaxel in KB-C2 lower than in KB-3-1” value with ABCB1 in KB-C2 cells [3] was “approximately 100 fold”. Further, the “decrease of intracellular [3H]-paclitaxel (efflux)” value with ABCB1 in KB-C2 cells [4] is listed as “about 50%”.
With FFRKVLKLIRKIWR [HX-12C], the IC50 in the data set with KB-3-1 cells [5] was found to be 7.53 µM. Also, the “effect on ATPase activity of ABCB1” value at ABCB1 (0 to 40 μM) is “stimulated ABCB1 ATPase activity; also recorded: can stimulate the ATPase activity of ABCB1 in a concentration-dependent manner”. Also, the “maximal stimulation of ABCB1 ATPase activity” value on ABCB1 (peptide 0 to 40 μM, 37°C, 20 min, vanadate-sensitive, three independent experiments) was 4.7 fold of the basic activity.
